{"source": "paper PMC9267955", "about": "“Antidiabetic, Antiglycation, and Antioxidant Activities of Ethanolic Seed Extract of Passiflora edulis and Piceatannol In Vitro” (Molecules, 2022)", "key": {"[1]": {"target": "T1, alpha-amylase from porcine pancreas (Sus scrofa, UniProt P00690)", "T1 construct": "alpha-amylase from porcine pancreas; purchased Sigma-Aldrich (Oakville, ON, Canada); host or cells: porcine pancreas", "T1 sequence (P00690 16-511)": "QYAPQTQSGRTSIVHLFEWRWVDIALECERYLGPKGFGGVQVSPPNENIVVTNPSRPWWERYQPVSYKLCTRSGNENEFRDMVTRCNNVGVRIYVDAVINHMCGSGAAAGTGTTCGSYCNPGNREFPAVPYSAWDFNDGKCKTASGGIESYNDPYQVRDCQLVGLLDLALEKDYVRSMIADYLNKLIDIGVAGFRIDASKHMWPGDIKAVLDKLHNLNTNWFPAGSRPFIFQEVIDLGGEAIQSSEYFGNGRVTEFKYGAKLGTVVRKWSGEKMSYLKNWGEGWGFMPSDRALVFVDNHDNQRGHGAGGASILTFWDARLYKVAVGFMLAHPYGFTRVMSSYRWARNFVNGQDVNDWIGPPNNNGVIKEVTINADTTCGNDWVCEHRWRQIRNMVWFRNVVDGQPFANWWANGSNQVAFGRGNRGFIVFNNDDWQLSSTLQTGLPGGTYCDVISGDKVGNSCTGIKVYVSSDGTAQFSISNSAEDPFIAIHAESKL", "assay": "Alpha-amylase inhibition assay", "type": "biochemical", "details": "pancreatic alpha-amylase; mean ± SD, triplicates"}, "[2]": {"assay": "MGO capture using derivatization with OPD (HPLC)", "details": "PESE 2 mg/mL, PIC 2 mM, AMG 2 mM; MGO 2 mM; 37 °C, 1 h", "description": "MGO scavenging was tested using a described procedure, with slight modifications. The quantification of MGO was based on derivatization with OPD, leading to the formation of the product 2-methylquinoxyline (2-MQ). MGO and OPD were dissolved in phosphate buffer (50 mM, pH 7.4) to a concentration of 2 mM and 4 mM, respectively. […] The reaction system was composed of 125 μL of the MGO solution, 125 μL of phosphate buffer (negative control), or PESE incubated at 37 °C for 1 h. After 250 μL of the OPD solution was added, the tubes were kept for 30 min for the derivatization reaction between MGO and OPD to complete. Then, the chromatographic analysis was performed. All solutions were previously filtered (microfilter pore diameter 0.45 μm). […] The linear gradient for elution was: starting at 5% of solvent B, 0–3 min, 5 to 50% B; 3–16 min, isocratic in 50% B; 16–17 min, 50–90% B; 17–19 min, isocratic in 90% B and 19–19.5 min, 90–5% B. The derivatization product, 2-methylquinoxyline (2-MQ), was detected at 315 nm, with a retention time of 10 min. The percentage of trapping efficiency of MGO was calculated using the following equation: % trapping MGO = [100 − (peak area after adding sample/peak area without adding sample) × 100]."}, "[3]": {"tested_on": "MCF-10A cells", "assay": "Intracellular ROS level (DCFH-DA) after NNKOAc", "type": "cell-based", "details": "50 µg/mL, 3 h pretreatment; NNKOAc 100 µM", "description": "The generation of intracellular ROS in BEAS-2B, AML-12, and MCF-10A cells after treatments was measured as described previously. Briefly, DCFH-DA dye was readily taken up by cells and is subsequently hydrolyzed to DCFH, which can be oxidized to a measurable fluorescent product dichlorofluorescein (DCF). […] Cells with DMSO media (0.5%) served as the vehicle control. After treatments, DCFH-DA was added to the cell culture plates at a final concentration of 5 μM followed by 40 min incubation at dark. The fluorescence […] was then measured at an excitation and emission wavelength of 485 nm and 535 nm, using a microplate reader (Infinite® 200 PRO, TECAN, Männedorf, Switzerland).\nBEAS-2B, MCF10-A, and AML-12, cells were purchased from the American Tissue Type Culture Collection (ATCC; CRL-9609, CRL-10317, and CRL-2254) and cultured with a specific medium. BEAS-2B cells were cultured with LHC-9 media at 37 °C in an incubator with 5% CO2. Culture flasks (polystyrene T75) were pre-coated with a mixture of 0.01 mg/mL fibronectin, 0.03 mg/mL bovine collagen type I, and 0.01 mg/mL bovine serum albumin were dissolved in LHC-9 medium overnight. […]"}, "[4]": {"tested_on": "AML-12 cells", "assay": "MTS cell viability assay", "type": "cell-based, mouse", "details": "up to 250 µg/mL; 24 h", "description": "(§1) BEAS-2B, MCF10-A, and AML-12, cells were purchased from the American Tissue Type Culture Collection (ATCC; CRL-9609, CRL-10317, and CRL-2254) and cultured with a specific medium. BEAS-2B cells were cultured with LHC-9 media at 37 °C in an incubator with 5% CO2. […] Cells were grown to around 70% confluence on the culture flask, and passages (<10) were employed for all experimental conditions. MTS Cell Titer 96™ aqueous cell proliferation assay was used to determine cell viability. […] For that, 1 × 10^4 cells were plated on a 96-well plate with a growth medium of 100 μL/well. […] Fifteen microliters of MTS reagent (with PMS) was then added to each well and incubated for 3 h in the dark. Absorbance was recorded at 490 nm using a microplate reader (Infinite® 200 PRO, TECAN, Männedorf, Switzerland). For each experiment, cells with DMSO media served as control, and cells with only culture medium and MTS reagent served as the blank."}, "[5]": {"assay": "MTS cell viability assay", "type": "cell-based", "details": "human, MCF-10A cells, up to 100 µg/mL", "description": "as §1"}, "[6]": {"target": "alpha-glucosidase", "set-up": "method as in PMID 31986026", "details": "cited from earlier work"}, "[7]": {"tested_on": "alpha-glucosidase", "details": "formation of p-nitrophenol; cited from earlier work"}, "[8]": {"tested_on": "db/db mice", "set-up": "method as in PMID 25832644", "details": "PIC supplementation; cited from earlier work"}, "[9]": {"tested_on": "cultured myotubes", "set-up": "method as in PMID 25832644", "details": "in the absence of insulin; cited from earlier work"}, "[10]": {"tested_on": "diabetic mice", "set-up": "method as in doi:10.32604/biocell.2020.08955", "details": "cited from earlier work"}}, "data": [{"smiles": "Oc1cc(O)cc(/C=C/c2ccc(O)c(O)c2)c1", "note": "[PIC, 3,3′,4′,5-trans-tetrahydroxystilbene]", "values": [{"measurement": "IC50", "setting": "[1]", "value": 350, "unit": "µM"}, {"measurement": "MGO trapping", "setting": "[2]", "value": 65.1, "unit": "%"}, {"measurement": "Protection from oxidative stress (ROS) caused by the carcinogen, MCF-10A", "setting": "[3]", "value": "able to protect"}, {"measurement": "Viability of AML-12 cells", "setting": "[4]", "value": "maintained"}, {"measurement": "viability at 24 h", "setting": "[5]", "value": "> 80", "unit": "%"}, {"measurement": "IC50", "setting": "[6]", "value": "4.3 ± 0.07", "unit": "µM"}, {"measurement": "Mechanism of alpha-glucosidase inhibition", "setting": "[7]", "value": "non-competitive"}, {"measurement": "Fasting blood glucose, db/db mice", "setting": "[8]", "value": "reduced fasting blood glucose"}, {"measurement": "Glucose uptake in cultured myotubes", "setting": "[9]", "value": "promoted glucose uptake"}, {"measurement": "Blood glucose, diabetic mice", "setting": "[10]", "value": "lowered the blood glucose"}, {"measurement": "Glucose tolerance, diabetic mice", "setting": "[10]", "value": "improved glucose tolerance"}]}]}
